Data reported in patent US5530126A, “Process for the preparation of substituted 6-(pyrazol-3yl)-1,4-benzoxazin-3-ones” (Monsanto Company, priority 1994, dated 1996).

Legend:
Format in all cases: in vivo
[1] = test system: Annual bluegrass; assay: Pre-emergence herbicide test; conditions: read-out: % plant inhibition (Anbg); for inhibition at 1120 g/ha: 1.12 kg/ha; for inhibition at 11210 g/ha: 11.21 kg/ha
Experimental: (§1) The tests for pre-emergence herbicide activity are conducted as follows:
(§2) Topsoil is placed in an aluminum pan and compacted to a depth of 0.95 to 1.27 cm from the top of the pan. On the top of the soil is placed a predetermined number of seeds of each of several monocotyledonous and dicotyledonous annual plant species and/or vegetative propagules of various perennial plant species. A known amount of the active ingredient dissolved or suspended in an organic solvent, e.g., acetone, or water as carrier is then applied directly to the seed bed, which is then covered with a layer of untreated topsoil to level fill the pan. After treatment, the pans are moved to a greenhouse bench where they are watered from below as needed to give adequate moisture for germination and growth.
(§3) Approximately 10-14 days (usually 11 days) after seeding and treating, the pans are observed and the results (% inhibition) are recorded.
(§4) Tables 7 and 7A below summarize the results of the pre-emergence herbicidal activity tests of compounds of this invention in weeds. The herbicidal rating shown in these tables is the percent inhibition of each plant species. The plant species usually regarded as weeds which are utilized in one set of tests, the data for which are shown in the tables, are identified by letter headings above the columns in accordance with the following legend: […]

[2] = test system: Barnyardgrass; assay: Pre-emergence herbicide test; conditions: Echinochloa crus-galli, read-out: % plant inhibition (Bygr); for inhibition at 1120 g/ha: 1.12 kg/ha; for inhibition at 11210 g/ha: 11.21 kg/ha
Experimental: as §1, §2, §3, §4

[3] = test system: Cocklebur; assay: Pre-emergence herbicide test; conditions: Xanthium strumarium, read-out: % plant inhibition (Cobu); for inhibition at 1120 g/ha: 1.12 kg/ha; for inhibition at 11210 g/ha: 11.21 kg/ha
Experimental: as §1, §2, §3, §4

[4] = test system: Downy Brome; assay: Pre-emergence herbicide test; conditions: Bromus tectorum, read-out: % plant inhibition (Dobr); for inhibition at 1120 g/ha: 1.12 kg/ha; for inhibition at 11210 g/ha: 11.21 kg/ha
Experimental: as §1, §2, §3, §4

[5] = test system: Indian Mustard; assay: Pre-emergence herbicide test; conditions: Brassica juncea, read-out: % plant inhibition (Inmu); for inhibition at 1120 g/ha: 1.12 kg/ha; for inhibition at 11210 g/ha: 11.21 kg/ha
Experimental: as §1, §2, §3, §4

[6] = test system: Morningglory; assay: Pre-emergence herbicide test; conditions: Ipomoea, read-out: % plant inhibition (Mogl); for inhibition at 1120 g/ha: 1.12 kg/ha; for inhibition at 11210 g/ha: 11.21 kg/ha
Experimental: as §1, §2, §3, §4

[7] = test system: Seedling johnsongrass; assay: Pre-emergence herbicide test; conditions: Sorghum halepense, read-out: % plant inhibition (Sejg); for inhibition at 1120 g/ha: 1.12 kg/ha; for inhibition at 11210 g/ha: 11.21 kg/ha
Experimental: as §1, §2, §3, §4

[8] = test system: Velvetleaf; assay: Pre-emergence herbicide test; conditions: Abutilon theophrasti, read-out: % plant inhibition (Vele); for inhibition at 1120 g/ha: 1.12 kg/ha; for inhibition at 11210 g/ha: 11.21 kg/ha
Experimental: as §1, §2, §3, §4

[9] = test system: Wild buckwheat; assay: Pre-emergence herbicide test; conditions: Fallopia convolvulus, read-out: % plant inhibition (Wibw); for inhibition at 1120 g/ha: 1.12 kg/ha; for inhibition at 11210 g/ha: 11.21 kg/ha
Experimental: as §1, §2, §3, §4

[10] = test system: Yellow nutsedge; assay: Pre-emergence herbicide test; conditions: Cyperus, read-out: % plant inhibition (Yens); for inhibition at 1120 g/ha: 1.12 kg/ha; for inhibition at 11210 g/ha: 11.21 kg/ha
Experimental: as §1, §2, §3, §4

[11] = test system: Annual bluegrass; assay: Post-emergence herbicide test; conditions: read-out: % plant inhibition (Anbg); for inhibition at 1120 g/ha: 1.12 kg/ha; for inhibition at 11210 g/ha: 11.21 kg/ha
Excerpt: (§5) Topsoil is placed in aluminum pans having holes in the bottom and compacted to a depth of 0.95 to 1.27 cm from the top of the pan. A predetermined number of seeds of each of several dicotyledonous and monocotyledonous annual plant species and/or vegetative propagules for the perennial plant species are placed on the soil and pressed into the soil surface. The seeds and/or vegetative propagules are covered with soil and leveled. The pans are then placed on a bench in the greenhouse and watered from below as needed. After the plants reach the desired age (two to three weeks), each pan, is removed individually to a spraying chamber and sprayed by means of an atomizer, operating at a spray pressure of 170.3 kPa (10 psig) at the application rates noted. In the spray solution is an amount of an emulsifying agent mixture to give a spray solution or suspension which contains about 0.4% by volume of the emulsifier. The spray solution or suspension contains a sufficient amount of the candidate chemical in order to give application rates of the active ingredient corresponding to those shown in Tables 8 and 8A, while applying a total amount of solution or suspension equivalent to 1870 L/Ha (200 gallons/acre). The pans were returned to the greenhouse and watered as before and the injury to the plants as compared to the control is observed at approximately 10-14 days (usually 11 days) and in some instances observed again at 24-28 days (usually 25 days) after spraying. The post-emergent herbicidal activity shown in these tables is the percent inhibition of each plant species.

[12] = test system: Barnyardgrass; assay: Post-emergence herbicide test; conditions: Echinochloa crus-galli, read-out: % plant inhibition (Bygr); for inhibition at 1120 g/ha: 1.12 kg/ha; for inhibition at 11210 g/ha: 11.21 kg/ha
Excerpt: as §5

[13] = test system: Cocklebur; assay: Post-emergence herbicide test; conditions: Xanthium strumarium, read-out: % plant inhibition (Cobu); for inhibition at 1120 g/ha: 1.12 kg/ha; for inhibition at 11210 g/ha: 11.21 kg/ha
Excerpt: as §5

[14] = test system: Downy Brome; assay: Post-emergence herbicide test; conditions: Bromus tectorum, read-out: % plant inhibition (Dobr); for inhibition at 1120 g/ha: 1.12 kg/ha; for inhibition at 11210 g/ha: 11.21 kg/ha
Excerpt: as §5

[15] = test system: Indian Mustard; assay: Post-emergence herbicide test; conditions: Brassica juncea, read-out: % plant inhibition (Inmu); for inhibition at 1120 g/ha: 1.12 kg/ha; for inhibition at 11210 g/ha: 11.21 kg/ha
Excerpt: as §5

[16] = test system: Morningglory; assay: Post-emergence herbicide test; conditions: Ipomoea, read-out: % plant inhibition (Mogl); for inhibition at 1120 g/ha: 1.12 kg/ha; for inhibition at 11210 g/ha: 11.21 kg/ha
Excerpt: as §5

[17] = test system: Seedling johnsongrass; assay: Post-emergence herbicide test; conditions: Sorghum halepense, read-out: % plant inhibition (Sejg); for inhibition at 1120 g/ha: 1.12 kg/ha; for inhibition at 11210 g/ha: 11.21 kg/ha
Excerpt: as §5

[18] = test system: Velvetleaf; assay: Post-emergence herbicide test; conditions: Abutilon theophrasti, read-out: % plant inhibition (Vele); for inhibition at 1120 g/ha: 1.12 kg/ha; for inhibition at 11210 g/ha: 11.21 kg/ha
Excerpt: as §5

[19] = test system: Wild buckwheat; assay: Post-emergence herbicide test; conditions: Fallopia convolvulus, read-out: % plant inhibition (Wibw); for inhibition at 1120 g/ha: 1.12 kg/ha; for inhibition at 11210 g/ha: 11.21 kg/ha
Excerpt: as §5

[20] = test system: Yellow nutsedge; assay: Post-emergence herbicide test; conditions: Cyperus, read-out: % plant inhibition (Yens); for inhibition at 1120 g/ha: 1.12 kg/ha; for inhibition at 11210 g/ha: 11.21 kg/ha
Excerpt: as §5

| SMILES | inhibition at 1120 g/ha [1] | inhibition at 1120 g/ha [2] | inhibition at 1120 g/ha [3] | inhibition at 1120 g/ha [4] | inhibition at 1120 g/ha [5] | inhibition at 1120 g/ha [6] | inhibition at 1120 g/ha [7] | inhibition at 1120 g/ha [8] | inhibition at 1120 g/ha [9] | inhibition at 1120 g/ha [10] | inhibition at 1120 g/ha [11] | inhibition at 1120 g/ha [12] | inhibition at 1120 g/ha [13] | inhibition at 1120 g/ha [14] | inhibition at 1120 g/ha [15] | inhibition at 1120 g/ha [16] | inhibition at 1120 g/ha [17] | inhibition at 1120 g/ha [18] | inhibition at 1120 g/ha [19] | inhibition at 1120 g/ha [20] | other results |
| --- | --- | --- | --- | --- | --- | --- | --- | --- | --- | --- | --- | --- | --- | --- | --- | --- | --- | --- | --- | --- | --- |
| CCOC(=O)C(C)=Cc1cc(-c2nn(C)c(C(F)(F)F)c2Cl)c(F)cc1Cl [Compound 127] | 0% | 30% | 20% | 0% | 90% | 70% | 20% | 100% | 100% | 0% | 20% | 60% | 100% | 80% | 100% | 100% | 100% | 100% | 100% | 20% |  |
| Cc1cc(-c2nn(C)c(C(F)(F)F)c2Cl)c(F)cc1Cl [Compound 124] |  |  |  |  |  |  |  |  |  |  |  |  |  |  |  |  |  |  |  |  | inhibition at 11210 g/ha [1]: 100%; inhibition at 11210 g/ha [2]: 100%; inhibition at 11210 g/ha [3]: 100%; inhibition at 11210 g/ha [4]: 100%; inhibition at 11210 g/ha [5]: 100%; inhibition at 11210 g/ha [6]: 100%; inhibition at 11210 g/ha [7]: 100%; inhibition at 11210 g/ha [8]: 100%; inhibition at 11210 g/ha [9]: 100%; inhibition at 11210 g/ha [10]: 20%; inhibition at 11210 g/ha [11]: 70%; inhibition at 11210 g/ha [12]: 90%; inhibition at 11210 g/ha [13]: 70%; inhibition at 11210 g/ha [14]: 50%; inhibition at 11210 g/ha [15]: 90%; inhibition at 11210 g/ha [16]: 100%; inhibition at 11210 g/ha [17]: 100%; inhibition at 11210 g/ha [18]: 100%; inhibition at 11210 g/ha [19]: 100%; inhibition at 11210 g/ha [20]: 20% |
| CC(O)c1cc(-c2nn(C)c(C(F)(F)F)c2Cl)c(F)cc1Cl (centres unmarked) [Compound 107] | 20% | 80% | 20% | 30% | 80% | 100% | 40% | 90% | 80% | 0% | 0% | 30% | 50% | 0% | 40% | 50% | 20% | 90% | 90% | 10% |  |
| Cn1nc(-c2cc(CC(=O)NCCCl)c(Cl)cc2F)c(Cl)c1C(F)(F)F [Compound 113] |  |  |  |  |  |  |  |  |  |  |  |  |  |  |  |  |  |  |  |  | inhibition at 11210 g/ha [1]: 10%; inhibition at 11210 g/ha [2]: 80%; inhibition at 11210 g/ha [3]: 0%; inhibition at 11210 g/ha [4]: 0%; inhibition at 11210 g/ha [5]: 80%; inhibition at 11210 g/ha [6]: 30%; inhibition at 11210 g/ha [7]: 30%; inhibition at 11210 g/ha [8]: 80%; inhibition at 11210 g/ha [9]: 40%; inhibition at 11210 g/ha [10]: 0%; inhibition at 11210 g/ha [11]: 0%; inhibition at 11210 g/ha [12]: 0%; inhibition at 11210 g/ha [13]: 20%; inhibition at 11210 g/ha [14]: 0%; inhibition at 11210 g/ha [15]: 0%; inhibition at 11210 g/ha [16]: 30%; inhibition at 11210 g/ha [17]: 0%; inhibition at 11210 g/ha [18]: 50%; inhibition at 11210 g/ha [19]: 20%; inhibition at 11210 g/ha [20]: 0% |
